Measured values: the Deep4Chem optical property database
Values belong to the compound of their own block, whether it stands above or below them.

Assay: solvent given as SMILES

emission maximum (in c1ccccc1): 480 nm
SMILES: Nc1ccc2nc(-c3ccccc3)c(=O)oc2c1

emission maximum (in ClCCl): 407 nm
SMILES: FC(F)(F)c1ccc(B2c3ccccc3Nc3ccccc32)c(C(F)(F)F)c1

emission maximum (in ClCCl): 546 nm
SMILES: [O-][n+]1c(/C=C/C=C/c2ccccc2)nc(N2CCOCC2)c2c1CCCC2

emission maximum (in ClC(Cl)Cl): 528 nm
SMILES: C(#Cc1ccccc1)C(C#Cc1ccccc1)=Cc1ccc(C=C(C#Cc2ccccc2)C#Cc2ccccc2)s1

emission maximum (in CC#N): 533 nm
SMILES: COc1ccc(-c2nc3c([nH]2)C2=CC(=O)S[C@]2(C)[C@@]2(C)SC(=O)C=C32)cc1

emission maximum (in CC#N): 552 nm
SMILES: Cc1cc(C)c2c(c1)nc1c(=O)n(C)c(=O)nc-1n2C

SMILES: CCN(CC)c1ccc([N+]2=Cc3ccc4c5c(ccc4c3O[B-]2(c2ccccc2)c2ccccc2)C=[N+](c2ccc(N(CC)CC)cc2)[B-](c2ccccc2)(c2ccccc2)O5)cc1
emission maximum (in Cc1ccccc1): 627 nm | emission maximum (in ClCCl): 644 nm

emission maximum (in c1ccccc1): 545 nm
SMILES: CCOC(=O)c1sc2nc3c(c(C#N)c2c1N)CCCC3

emission maximum (in CCCCCC): 464 nm
SMILES: CC(C)[Si](C#Cc1c2ccccc2c(C#C[Si](C(C)C)(C(C)C)C(C)C)c2nc3c(nc12)C1c2ccccc2C3c2ccccc21)(C(C)C)C(C)C

emission maximum (in ClCCl): 432 nm
SMILES: CCOC(=O)c1ccc(C2=Cc3cc4ccccc4cc3P2(=O)c2ccccc2)cc1 (stereo not given)

SMILES: O=P1(c2ccccc2)c2ccc(N3c4ccccc4Sc4ccccc43)cc2-c2cc(N3c4ccccc4Sc4ccccc43)ccc21
emission maximum (in Cc1ccccc1): 559 nm | emission maximum (in c1ccc2c(c1)c1ccccc1n2-c1ccc(-c2ccc(-n3c4ccccc4c4ccccc43)cc2)cc1): 555 nm

emission maximum (in C1CCOC1): 591 nm | emission maximum (in CCCCCC): 514 nm | emission maximum (in ClCCl): 608 nm | emission maximum (in c1ccccc1): 560 nm
SMILES: O=C1OC(=O)c2ccc(N(c3ccccc3)c3c4ccccc4cc4ccccc34)c3cccc1c23

SMILES: COc1cc(/C=C/c2ccncc2)c(OC)cc1C=O
emission maximum (in C1CCOC1): 448 nm | emission maximum (in CC#N): 465 nm | emission maximum (in CN(C)C=O): 463 nm | emission maximum (in Cc1ccccc1): 446 nm | emission maximum (in ClCCl): 460 nm

emission maximum (in ClC(Cl)Cl): 645 nm
SMILES: Cc1cc(C)c(C2=C3C=CC4=[N+]3[B-]3(Oc5ccccc54)Oc4ccccc4-c4ccc2n43)c(C)c1 (stereo not given)

emission maximum (in ClCCl): 521 nm
SMILES: CCCCCCN1C(=O)c2cccc3c(-c4ccc(-c5cc(-c6ccc(C)cc6)n(-c6ccccc6)n5)s4)ccc(c23)C1=O

emission maximum (in CS(C)=O): 421 nm | emission maximum (in O): 431 nm
SMILES: CCCCCn1c2ccc(S(=O)(=O)O)cc2c(=O)c2cc(S(=O)(=O)O)ccc21

emission maximum (in ClC(Cl)Cl): 482 nm
SMILES: CCCCCCN1C(=O)c2cccc3c(-c4ccc(C)s4)ccc(c23)C1=O

emission maximum (in CC1CCCCC1): 480 nm | emission maximum (in CC#N): 471 nm | emission maximum (in CO): 405 nm
SMILES: COC(=O)C(NC(=O)OC(C)(C)C)c1ccc2oc(-c3ccc(OC(=O)c4ccccc4)cc3O)nc2c1 (stereo not given)

emission maximum (in c1cc(-c2cccc(-n3c4ccccc4c4ccccc43)c2)cc(-n2c3ccccc3c3ccccc32)c1): 610 nm
SMILES: N#Cc1nc(-c2ccc(N3c4ccccc4Oc4ccccc43)cc2)c(-c2ccc(N3c4ccccc4Oc4ccccc43)cc2)nc1C#N

emission maximum (in ClC(Cl)Cl): 446 nm
SMILES: F[B-]1(F)OC(c2cccc(Br)c2)=Cc2c3ccccc3c3ccccc3[n+]21

SMILES: CN(C)c1ccc(-c2cc3c(ccc4c([N+](=O)[O-])cccc43)c(=O)o2)cc1
emission maximum (in CC(C)=O): 530 nm | emission maximum (in CCOC(C)=O): 624 nm | emission maximum (in CN(C)C=O): 546 nm | emission maximum (in CO): 548 nm | emission maximum (in ClC(Cl)Cl): 634 nm

SMILES: COc1ccc(/C=C/c2ccc(-c3nnc(-c4ccc(-c5cc6ccccc6s5)cc4)o3)cc2)cc1
emission maximum (in CC#N): 441 nm | emission maximum (in CC(C)=O): 449 nm | emission maximum (in CCCCCCCC): 407 nm | emission maximum (in CCCCCCCCCCO): 427 nm | emission maximum (in CCCCCCCCO): 433 nm | emission maximum (in CCCCCO): 436 nm | emission maximum (in CCCO): 438 nm | emission maximum (in CN(C)C=O): 463 nm | emission maximum (in CO): 445 nm | emission maximum (in CS(C)=O): 459 nm

emission maximum (in CC#N): 624 nm | emission maximum (in CCCCCC): 587 nm | emission maximum (in CO): 633 nm
SMILES: COc1ccc(N2c3cc(OC)ccc3N=c3cc4c(cc32)=Nc2cc(C(C)(C)C)cc(C(C)(C)C)c2O4)cc1

emission maximum (in CC#N): 420 nm
SMILES: C=Cc1cc2ccc(OC(=O)c3ccccc3)cc2oc1=O

emission maximum (in CS(C)=O): 441 nm
SMILES: O=C1CCCC2=C1C(c1ccc([N+](=O)[O-])cc1)c1c(c3ccccc3oc1=O)N2 (stereo not given)

emission maximum (in C1CCOC1): 609 nm
SMILES: Cc1ccc(C2=C3C=CC([Se]c4ccccc4)=[N+]3[B-](F)(F)n3c([Se]c4ccccc4)ccc32)cc1

emission maximum (in C1CCCCC1): 328 nm
SMILES: C[SiH](C)c1cccc2ccccc12

SMILES: c1ccc(N2c3ccc4ccccc4c3-c3c4ccccc4cn[n+]3[B-]2(c2ccccc2)c2ccccc2)cc1
emission maximum (in Cc1ccccc1): 657 nm

emission maximum (in ClCCl): 457 nm
SMILES: Cc1ccc(C2=Nc3cccc4[n+]3[B-](F)(O2)OC(c2ccc(C)cc2)=N4)cc1

SMILES: c1ccc(N(c2ccccc2)c2ccc(-c3ccc4c(c3)C3(c5cc(-c6ccc(N(c7ccccc7)c7ccccc7)cc6)ccc5S4)c4ccccc4-c4ccccc43)cc2)cc1
emission maximum (in CC(C)=O): 414.99 nm | emission maximum (in CCCCCC): 392.96 nm | emission maximum (in CN(C)C=O): 421.13 nm | emission maximum (in Cc1ccccc1): 398.74 nm | emission maximum (in ClCCl): 410 nm

emission maximum (in C1CCOC1): 530 nm
SMILES: CC1=[N+]2C(=C(c3ccc(C(=C(c4ccccc4)c4ccccc4)c4ccccc4)cc3)c3ccc(C)n3[B-]2(F)F)C=C1

SMILES: N#Cc1nc2c3ccc(-c4ccc(N(c5ccccc5)c5ccccc5)cc4)cc3c3cc(-c4ccc(N(c5ccccc5)c5ccccc5)cc4)ccc3c2nc1C#N
emission maximum (in C1COCCO1): 633.42 nm | emission maximum (in CCCCCC): 503.54 nm | emission maximum (in Cc1ccccc1): 588 nm | emission maximum (in ClC(Cl)Cl): 721.14 nm | emission maximum (in O=P(c1ccccc1)(c1ccccc1)c1cccc(-c2cc(-n3c4ccccc4c4ccccc43)cc(-n3c4ccccc4c4ccccc43)c2)n1): 628 nm

emission maximum (in ClC(Cl)Cl): 473 nm
SMILES: CN(C)c1ccc(-c2cc(-c3cccs3)nc(-c3ccccc3)n2)cc1

emission maximum (in ClCCl): 648 nm
SMILES: CC1=c2ccccc2=[N+]2C1=Cc1c3ccccc3c(-c3[nH]c4ccccc4c3C)n1[B-]2(F)F

SMILES: O=C(O)C1=C/C(=C/C=[NH+]/c2ccc3c(C(F)(F)F)cc(=O)oc3c2)CC(C(=O)O)N1 (stereo not given)
emission maximum (in O): 570 nm

emission maximum (in ClCCl): 471 nm
SMILES: CN(/N=C1\N=C(N)C2(CCCC2)c2ccccc21)c1ccccc1

emission maximum (in CCCCCC): 694 nm
SMILES: CC(C)[Si](C#Cc1c2nc3ccccc3nc2c(C#C[Si](C(C)C)(C(C)C)C(C)C)c2nc3ccccc3nc12)(C(C)C)C(C)C

emission maximum (in ClCCl): 405 nm
SMILES: CC(=O)c1ccc(-c2cc(C)[o+]c(C)c2)cc1

SMILES: N#Cc1cccc2ccccc12
emission maximum (in Cc1ccccc1): 341.02 nm

emission maximum (in ClC(Cl)Cl): 517.5 nm
SMILES: CC1=CC(C)=[N+]2C1=C(c1ccc(I)cc1)c1c(C)cc(C)n1[B-]2(Oc1ccccc1)Oc1ccccc1

emission maximum (in ClC(Cl)Cl): 663 nm
SMILES: CN1C(=CC2=C([S-])C(=CC3=[N+](C)c4ccccc4C3(C)C)C2=O)C(C)(C)c2ccccc21

SMILES: CCCC1=Cc2nc1ccc1[nH]c(cc1CCC)c1nc(c(OC(=O)CCCC(=O)OC(C)(C)C)cc3[nH]c2cc3CCC)C(CCC)=C1
emission maximum (in Cc1ccccc1): 651 nm

emission maximum (in C1CCOC1): 496 nm | emission maximum (in CC#N): 505 nm | emission maximum (in CCO): 519 nm | emission maximum (in CN(C)C=O): 514 nm | emission maximum (in CO): 521 nm | emission maximum (in CS(C)=O): 527 nm
SMILES: CSc1sc(C(N)=O)c2nnn(C)c(=O)c12

SMILES: c1ccc2c(c1)Sc1ccccc1N2c1ccc2c(c1)C1(CC1)c1cc(N3c4ccccc4Sc4ccccc43)ccc1-2
emission maximum (in Cc1ccccc1): 494 nm

emission maximum (in ClC(Cl)Cl): 676 nm
SMILES: CCCCCCCCOc1ccc(-c2c3c4n(c(-c5ccc(OCCCCCCCC)cc5)c3c3n2[B-](F)(F)[n+]2c(sc5ccccc52)N=3)[B-](F)(F)[n+]2c(sc3ccccc32)N=4)cc1
